The subject of the assay is abnormal neurones in brain after bilateral common carotid artery occlusion. Nature of the assay: Five minute model of bilateral common carotid artery occlusion in the gerbil with 72 hour survival. As to conditions: then b.i.d. for 72 h. It counts as in vivo. As to the method:
In vivo protective effects of the compounds of this invention against the deleterious effects of cerebral ischemia are determined by use of the standard gerbil brain ischemia model.
A. Five minute model of bilateral common carotid artery occlusion in the gerbil with 72 hour survival
2) Sham-operated animals--The animals were anesthetized with a halothane-nitrous oxide-oxygen mixture. […] The microscopic sections were prepared and counted as in 1) above. In this case 7 animals were used and 100 microscopic fields were counted.
3) Untreated ischemic controls--In this case animals were subjected to 5 minute bilateral carotid artery occlusion with 72 hour survival. The microscopic sections were prepared and counted as in 1) above. In this case 12 animals were used and 120 microscopic fields were counted.
4) Parenteral, 15 minute pre-ischemia treated--The animals were given 500 mg/kg i.p. of 1-diphenylmethyl-4-[(2-(4-methylphenyl)-5-methylimidazol-4-yl)methyl]piperazine trihydrochloride 15 minutes prior to ischaemic insult. The treatment was repeated b.i.d. for 72 hours. The microscopic sections were prepared and counted as in 1) above. In this case 10 animals were used and 100 microscopic fields were counted.
5) Parenteral 15 minute pre-ischemic treated--The animals were given 250 mg/kg i.p. of 1-diphenylmethyl-4-[(2-(4-methylphenyl)-5-methylimidazol-4-yl)methyl]piperazine trihydrochloride 15 minutes prior to ischaemic insult. Treatment was repeated b.i.d. for 72 hours. The microscopic sections were prepared and counted as in 1) above. In this case 6 animals were used and 60 microscopic fields were counted.
6) Parenteral 15 minute post-ischemia treated--The animals were given 500 mg/kg i.p. of 1-diphenylmethyl-4-[(2-(4-methylphenyl)-5-methylimidazol-4-yl)methyl]piperazine trihydrochloride 15 minutes after ischaemic insult. The treatment was repeated b.i.d. for 72 hours. The microscopic sections were prepared and counted as in 1) above. In this case 9 animals were used and 90 microscopic fields were counted.
7) Oral, pre-ischemia treated--The animals were given 5 mg/kg p.o. b.i.d. of 1-diphenyl-methyl-4-[(2-(4-methylphenyl)-5-methylimidazol-4-yl)-methyl]piperazine trihydrochloride for 3 days and on the 4th day at 1 hour pre-ischaemic. Treatment was repeated b.i.d. for 72 hours. The microscopic sections were prepared and counted as in 1) above. In this case 11 animals were used and 110 microscopic fields were counted.
8) Oral, pre-ischemia treated--The animals were given 10 mg/kg p.o. of 1-diphenyl-methyl-4-[(2-(4-methylphenyl)-5-methylimidazol-4-yl)-methyl]piperazine trihydrochloride for 3 days and on 4th day at 1 hour pre-ischaemia.Treatment was repeated b.i.d. for 72 hours. The microscopic sections were prepared and counted as in 1) above. In this case 9 animals were used and 90 microscopic fields were counted.

With `Cc1ccc(-c2nc(CN3CCN(C(c4ccccc4)c4ccccc4)CC3)c(C)[nH]2)cc1.Cl.Cl.Cl` [1-diphenylmethyl-4-[(2-(4-methylphenyl)-5-methylimidazol-4-yl)methyl]piperazine trihydrochloride], the “mean % abnormal neurones” value was found to be 3.00±1.00% (5 mg/kg p.o. b.i.d. 3 days and 1 h pre-ischemia); 22.00±3.10% (10 mg/kg p.o. 3 days and 1 h pre-ischemia); 27.20±4.30% (250 mg/kg i.p. 15 min pre-ischemia); 41.70±4.60% (500 mg/kg i.p. 15 min post-ischemia); 26.90±3.30% (500 mg/kg i.p. 15 min pre-ischemia).

Source of the values: patent US5276034A, “Substituted imidazolyl-alkyl-piperazine and -diazepine derivatives” (Syntex Pharmaceutical Ltd., priority 1991, dated 1994).
